Results reported in ChEMBL document CHEMBL1145498, “A systematic interaction map of validated kinase inhibitors with Ser/Thr kinases” (Proc Natl Acad Sci U S A, 2007).

Legend:
[1] = biological target: Dual specificity protein kinase CLK2 (Homo sapiens) (UniProt P49760)
[2] = biological target: Calcium/calmodulin-dependent protein kinase type 1G (Homo sapiens) (UniProt Q96NX5)
[3] = biological target: Serine/threonine-protein kinase pim-2 (Homo sapiens, UniProt Q9P1W9)
[4] = biological target: Calcium/calmodulin-dependent protein kinase kinase 2 (Homo sapiens, UniProt Q96RR4)
[5] = biological target: Ribosomal protein S6 kinase alpha-3 (Homo sapiens) (UniProt P51812)
[6] = biological target: Mitogen-activated protein kinase 6 (Homo sapiens) (UniProt Q16659)
Chain of Mitogen-activated protein kinase 6 (Homo sapiens) (Q16659 whole entry): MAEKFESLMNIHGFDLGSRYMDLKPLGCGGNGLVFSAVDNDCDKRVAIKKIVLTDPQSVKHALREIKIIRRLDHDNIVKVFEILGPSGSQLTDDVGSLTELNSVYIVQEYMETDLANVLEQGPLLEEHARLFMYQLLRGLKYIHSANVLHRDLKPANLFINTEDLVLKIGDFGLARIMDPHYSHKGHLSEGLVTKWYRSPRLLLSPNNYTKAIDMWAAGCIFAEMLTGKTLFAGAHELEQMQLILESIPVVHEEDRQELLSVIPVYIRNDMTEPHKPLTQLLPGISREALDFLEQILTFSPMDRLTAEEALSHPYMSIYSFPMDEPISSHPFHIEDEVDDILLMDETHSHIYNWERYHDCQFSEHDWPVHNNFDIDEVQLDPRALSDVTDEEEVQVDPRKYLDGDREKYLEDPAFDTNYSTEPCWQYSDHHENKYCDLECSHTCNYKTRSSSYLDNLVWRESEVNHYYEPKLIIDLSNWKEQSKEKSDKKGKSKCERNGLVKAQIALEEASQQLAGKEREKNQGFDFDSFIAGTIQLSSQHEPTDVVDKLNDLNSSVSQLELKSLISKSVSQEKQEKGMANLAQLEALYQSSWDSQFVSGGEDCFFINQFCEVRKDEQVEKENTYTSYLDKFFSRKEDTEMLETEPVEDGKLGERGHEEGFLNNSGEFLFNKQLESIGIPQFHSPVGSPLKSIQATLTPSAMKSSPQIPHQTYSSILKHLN

[7] = biological target: T1, Serine/threonine-protein kinase 4 (Homo sapiens) (UniProt Q13043)
T1 sequence (whole entry): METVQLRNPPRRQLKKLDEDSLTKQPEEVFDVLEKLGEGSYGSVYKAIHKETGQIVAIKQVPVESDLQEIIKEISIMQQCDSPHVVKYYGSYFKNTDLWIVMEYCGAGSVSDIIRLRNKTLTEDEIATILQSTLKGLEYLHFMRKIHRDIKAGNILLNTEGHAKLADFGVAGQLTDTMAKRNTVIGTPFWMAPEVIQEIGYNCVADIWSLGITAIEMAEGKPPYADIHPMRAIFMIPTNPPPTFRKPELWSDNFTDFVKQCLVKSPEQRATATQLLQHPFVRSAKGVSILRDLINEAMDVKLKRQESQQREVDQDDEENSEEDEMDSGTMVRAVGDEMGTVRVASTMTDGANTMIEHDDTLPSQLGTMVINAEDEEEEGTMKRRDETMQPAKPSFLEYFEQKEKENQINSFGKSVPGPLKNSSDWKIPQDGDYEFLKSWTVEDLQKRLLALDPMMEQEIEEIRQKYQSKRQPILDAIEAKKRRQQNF

[8] = biological target: Ribosomal protein S6 kinase alpha-3 (Homo sapiens) (UniProt P51812); remark: listed apart in the source
[9] = biological target: Serine/threonine-protein kinase 26 (Homo sapiens) (UniProt Q9P289)
Chain of Serine/threonine-protein kinase 26 (Homo sapiens) (Q9P289 2-416 limits assumed): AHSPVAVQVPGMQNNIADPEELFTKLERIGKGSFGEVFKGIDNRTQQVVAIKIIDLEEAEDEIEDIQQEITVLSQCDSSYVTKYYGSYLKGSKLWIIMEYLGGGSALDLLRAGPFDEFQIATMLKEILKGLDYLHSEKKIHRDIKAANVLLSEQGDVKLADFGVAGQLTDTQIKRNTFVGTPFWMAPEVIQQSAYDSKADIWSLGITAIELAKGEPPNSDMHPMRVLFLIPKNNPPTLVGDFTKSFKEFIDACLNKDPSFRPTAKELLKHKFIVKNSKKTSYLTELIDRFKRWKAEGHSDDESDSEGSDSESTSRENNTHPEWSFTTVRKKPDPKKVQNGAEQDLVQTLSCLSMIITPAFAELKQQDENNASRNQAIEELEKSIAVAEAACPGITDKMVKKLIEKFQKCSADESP

[10] = biological target: T2, Serine/threonine-protein kinase VRK3 (Homo sapiens) (UniProt Q8IV63)
T2 sequence (whole entry): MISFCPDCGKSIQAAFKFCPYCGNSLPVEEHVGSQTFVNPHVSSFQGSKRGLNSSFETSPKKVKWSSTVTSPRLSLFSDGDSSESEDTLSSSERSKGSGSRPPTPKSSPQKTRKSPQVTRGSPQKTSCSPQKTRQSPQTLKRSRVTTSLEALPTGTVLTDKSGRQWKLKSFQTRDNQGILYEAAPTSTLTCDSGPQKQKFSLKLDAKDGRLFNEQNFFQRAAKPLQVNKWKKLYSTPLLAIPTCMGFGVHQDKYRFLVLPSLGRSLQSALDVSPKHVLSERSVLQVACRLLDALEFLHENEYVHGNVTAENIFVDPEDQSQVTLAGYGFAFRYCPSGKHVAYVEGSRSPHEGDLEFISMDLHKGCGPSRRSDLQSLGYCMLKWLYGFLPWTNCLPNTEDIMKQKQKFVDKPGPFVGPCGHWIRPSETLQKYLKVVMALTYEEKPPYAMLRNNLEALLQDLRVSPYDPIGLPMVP

[11] = biological target: STE20-like serine/threonine-protein kinase (Homo sapiens) (UniProt Q9H2G2)
Chain of STE20-like serine/threonine-protein kinase (Homo sapiens) (Q9H2G2 whole entry, looked up): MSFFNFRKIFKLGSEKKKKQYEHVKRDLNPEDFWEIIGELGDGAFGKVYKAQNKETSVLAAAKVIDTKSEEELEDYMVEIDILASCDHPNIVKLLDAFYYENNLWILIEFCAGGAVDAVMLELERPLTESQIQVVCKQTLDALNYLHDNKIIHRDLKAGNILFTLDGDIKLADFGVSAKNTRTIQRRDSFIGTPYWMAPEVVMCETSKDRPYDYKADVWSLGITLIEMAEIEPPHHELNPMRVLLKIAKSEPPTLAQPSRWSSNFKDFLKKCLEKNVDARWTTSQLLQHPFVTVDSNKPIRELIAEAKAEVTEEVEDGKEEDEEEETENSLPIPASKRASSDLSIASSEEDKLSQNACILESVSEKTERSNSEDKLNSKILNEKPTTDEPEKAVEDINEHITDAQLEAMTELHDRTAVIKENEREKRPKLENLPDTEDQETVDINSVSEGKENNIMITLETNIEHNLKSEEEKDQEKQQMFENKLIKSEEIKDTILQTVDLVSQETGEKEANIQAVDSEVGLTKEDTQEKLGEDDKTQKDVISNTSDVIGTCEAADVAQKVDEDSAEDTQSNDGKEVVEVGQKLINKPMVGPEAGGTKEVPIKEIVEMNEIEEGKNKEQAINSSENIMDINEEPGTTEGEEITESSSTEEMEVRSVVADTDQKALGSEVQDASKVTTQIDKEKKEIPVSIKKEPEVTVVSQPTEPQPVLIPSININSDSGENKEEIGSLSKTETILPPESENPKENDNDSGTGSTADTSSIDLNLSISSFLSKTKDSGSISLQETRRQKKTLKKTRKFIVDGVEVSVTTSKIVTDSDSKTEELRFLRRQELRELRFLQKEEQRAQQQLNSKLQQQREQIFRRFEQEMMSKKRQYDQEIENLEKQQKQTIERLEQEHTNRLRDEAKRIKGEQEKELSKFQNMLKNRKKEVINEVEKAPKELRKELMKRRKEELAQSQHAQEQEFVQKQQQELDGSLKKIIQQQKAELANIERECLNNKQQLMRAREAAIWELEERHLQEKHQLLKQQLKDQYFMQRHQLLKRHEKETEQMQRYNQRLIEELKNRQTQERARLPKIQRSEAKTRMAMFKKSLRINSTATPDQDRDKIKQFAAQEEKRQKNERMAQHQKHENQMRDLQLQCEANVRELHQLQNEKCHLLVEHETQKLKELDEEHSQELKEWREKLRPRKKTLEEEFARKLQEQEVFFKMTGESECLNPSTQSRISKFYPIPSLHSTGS

[12] = biological target: Cyclin-dependent kinase 16 (Homo sapiens) (UniProt Q00536)
[13] = biological target: Serine/threonine-protein kinase PAK 5 (Homo sapiens) (UniProt Q9P286)
Chain of Serine/threonine-protein kinase PAK 5 (Homo sapiens) (Q9P286 whole entry, looked up, canonical isoform): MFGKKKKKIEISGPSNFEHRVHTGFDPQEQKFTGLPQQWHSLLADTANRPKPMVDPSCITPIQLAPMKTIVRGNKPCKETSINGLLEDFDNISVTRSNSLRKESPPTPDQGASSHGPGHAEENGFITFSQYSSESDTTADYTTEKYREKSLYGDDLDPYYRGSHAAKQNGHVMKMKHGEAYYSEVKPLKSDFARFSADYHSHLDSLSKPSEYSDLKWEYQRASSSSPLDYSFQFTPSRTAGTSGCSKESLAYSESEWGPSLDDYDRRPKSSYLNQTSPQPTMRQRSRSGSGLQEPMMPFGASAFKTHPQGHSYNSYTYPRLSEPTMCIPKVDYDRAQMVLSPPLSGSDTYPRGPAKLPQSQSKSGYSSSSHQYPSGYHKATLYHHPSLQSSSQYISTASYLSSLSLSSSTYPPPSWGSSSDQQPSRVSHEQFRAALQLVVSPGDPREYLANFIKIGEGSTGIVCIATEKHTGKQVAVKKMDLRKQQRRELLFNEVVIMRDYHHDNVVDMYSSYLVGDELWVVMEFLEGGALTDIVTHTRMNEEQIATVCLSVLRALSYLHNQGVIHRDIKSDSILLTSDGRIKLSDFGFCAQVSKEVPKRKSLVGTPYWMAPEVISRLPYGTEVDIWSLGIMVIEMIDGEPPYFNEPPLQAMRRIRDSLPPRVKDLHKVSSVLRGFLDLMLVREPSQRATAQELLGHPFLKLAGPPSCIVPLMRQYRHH

[14] = biological target: Casein kinase I isoform gamma-1 (Homo sapiens) (UniProt Q9HCP0)
[15] = biological target: Dual specificity protein kinase CLK1 (Homo sapiens) (UniProt P49759)
[16] = biological target: Serine/threonine-protein kinase OSR1 (Homo sapiens) (UniProt O95747)
[17] = biological target: Serine/threonine-protein kinase Chk2 (Homo sapiens, UniProt O96017)
Chain of Serine/threonine-protein kinase Chk2 (O96017 whole entry): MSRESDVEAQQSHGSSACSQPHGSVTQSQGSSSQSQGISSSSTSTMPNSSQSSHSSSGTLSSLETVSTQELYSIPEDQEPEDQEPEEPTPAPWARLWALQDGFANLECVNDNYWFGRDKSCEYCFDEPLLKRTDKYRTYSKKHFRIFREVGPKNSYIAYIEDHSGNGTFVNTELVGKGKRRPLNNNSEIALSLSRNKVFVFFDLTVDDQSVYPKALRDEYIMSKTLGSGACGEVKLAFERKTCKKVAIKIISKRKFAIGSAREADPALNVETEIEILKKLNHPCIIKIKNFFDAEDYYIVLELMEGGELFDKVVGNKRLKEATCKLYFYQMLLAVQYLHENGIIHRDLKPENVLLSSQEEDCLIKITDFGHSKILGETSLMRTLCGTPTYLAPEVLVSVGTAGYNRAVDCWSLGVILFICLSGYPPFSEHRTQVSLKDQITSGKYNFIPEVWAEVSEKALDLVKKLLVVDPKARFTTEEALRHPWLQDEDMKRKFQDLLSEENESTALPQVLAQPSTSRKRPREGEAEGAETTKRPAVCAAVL

[18] = biological target: Cyclin-dependent kinase 6 (Homo sapiens) (UniProt Q00534)
[19] = biological target: Serine/threonine-protein kinase 16 (Homo sapiens) (UniProt O75716)
[20] = biological target: Serine/threonine-protein kinase 38 (Homo sapiens) (UniProt Q15208)
[21] = biological target: Dual specificity protein kinase CLK3 (Homo sapiens) (UniProt P49761)
Chain of Dual specificity protein kinase CLK3 (Homo sapiens) (P49761 whole entry, looked up): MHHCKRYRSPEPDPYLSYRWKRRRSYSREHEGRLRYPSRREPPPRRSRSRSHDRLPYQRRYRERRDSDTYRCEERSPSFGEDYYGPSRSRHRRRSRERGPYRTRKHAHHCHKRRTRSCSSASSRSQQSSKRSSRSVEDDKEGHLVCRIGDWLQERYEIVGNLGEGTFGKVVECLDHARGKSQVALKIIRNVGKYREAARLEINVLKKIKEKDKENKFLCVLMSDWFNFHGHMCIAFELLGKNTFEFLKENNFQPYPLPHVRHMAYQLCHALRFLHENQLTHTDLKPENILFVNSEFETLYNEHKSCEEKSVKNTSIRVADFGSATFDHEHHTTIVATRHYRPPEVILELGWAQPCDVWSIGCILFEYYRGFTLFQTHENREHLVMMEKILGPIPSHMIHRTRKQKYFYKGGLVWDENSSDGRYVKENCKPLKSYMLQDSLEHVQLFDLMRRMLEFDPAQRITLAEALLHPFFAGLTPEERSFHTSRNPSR

Chain of Dual specificity protein kinase CLK2 (Homo sapiens) (P49760 whole entry, looked up): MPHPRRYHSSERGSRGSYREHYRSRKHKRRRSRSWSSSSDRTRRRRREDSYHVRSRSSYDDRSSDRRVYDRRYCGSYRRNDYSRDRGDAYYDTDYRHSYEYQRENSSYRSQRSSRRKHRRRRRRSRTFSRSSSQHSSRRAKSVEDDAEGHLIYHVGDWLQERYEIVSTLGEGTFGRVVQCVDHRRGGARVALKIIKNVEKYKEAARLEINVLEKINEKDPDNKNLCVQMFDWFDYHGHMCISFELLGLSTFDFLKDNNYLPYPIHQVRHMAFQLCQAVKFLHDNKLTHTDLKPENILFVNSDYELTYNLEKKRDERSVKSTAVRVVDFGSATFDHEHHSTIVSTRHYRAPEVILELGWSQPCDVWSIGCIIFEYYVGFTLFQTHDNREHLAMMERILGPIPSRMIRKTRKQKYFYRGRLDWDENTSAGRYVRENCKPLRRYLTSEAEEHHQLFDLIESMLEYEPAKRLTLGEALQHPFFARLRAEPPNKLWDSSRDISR
Chain of Serine/threonine-protein kinase pim-2 (Q9P1W9 whole entry, looked up): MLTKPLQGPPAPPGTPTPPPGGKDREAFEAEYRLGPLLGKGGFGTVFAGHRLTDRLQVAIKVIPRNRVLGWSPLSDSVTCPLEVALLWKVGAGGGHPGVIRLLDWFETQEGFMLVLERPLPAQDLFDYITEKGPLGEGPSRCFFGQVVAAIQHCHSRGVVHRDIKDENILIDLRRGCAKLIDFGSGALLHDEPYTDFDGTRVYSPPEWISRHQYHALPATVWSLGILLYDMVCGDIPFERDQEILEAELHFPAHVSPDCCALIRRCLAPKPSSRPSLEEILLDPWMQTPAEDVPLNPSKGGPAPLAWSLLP

Row | SMILES | ΔTm [1] | ΔTm [2] | ΔTm [3] | ΔTm [4] | ΔTm [5] | ΔTm [6] | ΔTm [7] | ΔTm [8] | ΔTm [9] | ΔTm [10] | ΔTm [11] | ΔTm [12] | ΔTm [13] | ΔTm [14] | ΔTm [15] | ΔTm [16] | ΔTm [17] | ΔTm [18] | ΔTm [19] | ΔTm [20] | also measured
1 | O=C1Cc2c([nH]c3ccc([N+](=O)[O-])cc23)-c2ccccc2N1 | 0.7 °C | 0.5 °C | 1.5 °C | 2.5 °C | 0.2 °C | 1.2 °C | 5.1 °C | 2.4 °C | 1.3 °C | 0 °C | 2.1 °C | 3.8 °C | 3.8 °C | 1.4 °C | 2.2 °C | 1.2 °C | 7.8 °C | 1.4 °C | 1 °C | 1.8 °C | ΔTm [21]: 1 °C
2 | O=c1c(-c2ccc(F)cc2)c(-c2ccncc2)[nH]n1-c1ccc(Cl)cc1 | 0.8 °C | 1.3 °C | 0.2 °C | 0.2 °C | 0 °C | 0.7 °C | 1.8 °C | 1.2 °C | 0.6 °C | -1.1 °C | 2.4 °C | 0.3 °C | -0.1 °C | 0.5 °C | 1 °C | 0.2 °C | 0.3 °C | 0.6 °C | 0.1 °C | 0.5 °C | ΔTm [21]: 0.3 °C
3 | NC1=NC(=O)/C(=C2\CCNC(=O)c3[nH]c(Br)cc32)N1 [HYMENIALDISINE] | 5.6 °C | -0.2 °C | 3.7 °C | 3.4 °C | 6.3 °C | -0.1 °C | 5.2 °C | 4.2 °C | 1.8 °C | 0.3 °C | 2.1 °C | 0.1 °C | 0.4 °C | 5.7 °C | 9.2 °C | 0.5 °C | 8.2 °C | 1.1 °C | 1.5 °C | 1 °C | ΔTm [21]: 8.3 °C
4 | Cc1cncc2cccc(S(=O)(=O)N3CCCNC[C@@H]3C)c12 | 1.8 °C | -0.1 °C | 0.7 °C | -0.1 °C | 5.5 °C | 0 °C | 3.3 °C | 2.4 °C | 0.8 °C | 0.4 °C | 2.9 °C | -0.6 °C | 0.5 °C | 0 °C | 3 °C | 0.6 °C | 1.5 °C | -0.1 °C | 1.1 °C | 0.6 °C | ΔTm [21]: 2.6 °C
5 | CC(C)N(CCO)c1nc(Nc2cccc(Cl)c2)c2ncn(C(C)C)c2n1 | 5.8 °C | -0.1 °C | 0.2 °C | 2.8 °C | 0.6 °C | 0.1 °C | 4.2 °C | 6 °C | 0.7 °C | 0.4 °C | 2.9 °C | 0.8 °C | 3 °C | 6.1 °C | 5.9 °C | 1.3 °C | 0.6 °C | 0.2 °C | 3.1 °C | 3.3 °C | ΔTm [21]: 4.2 °C
6 | O=C1Nc2ccc(I)cc2/C1=C1/Nc2ccccc2/C1=N\O | 2.9 °C | 0.5 °C | -0.5 °C | 6.9 °C | 3.3 °C | 0.5 °C | 9.5 °C | 2.7 °C | 0 °C | 0.4 °C | 3.7 °C | 5.6 °C | 1.3 °C | 1.5 °C | 3.2 °C | -1.3 °C | 1.9 °C | 0.8 °C | 1.9 °C | 2 °C | ΔTm [21]: 3.5 °C
7 | O=C1Nc2ccc(I)cc2/C1=C\c1cc(Br)c(O)c(Br)c1 | 1.2 °C | -1.8 °C | 6.8 °C | 3.5 °C | 5.1 °C | 0.4 °C | 4.1 °C | 2.7 °C | 1.6 °C | -1.6 °C | 2.2 °C | -0.4 °C | 1 °C | 0.2 °C | 1.3 °C | -0.4 °C | 0.1 °C | 0.3 °C | 1 °C | 0.5 °C | ΔTm [21]: 0.5 °C

The next lines start with results.

Row | ΔTm [1] | ΔTm [2] | ΔTm [3] | ΔTm [4] | ΔTm [5] | ΔTm [6] | ΔTm [7] | ΔTm [8] | ΔTm [9] | ΔTm [10] | ΔTm [11] | ΔTm [12] | ΔTm [13] | ΔTm [14] | ΔTm [15] | ΔTm [16] | ΔTm [17] | ΔTm [18] | ΔTm [19] | ΔTm [20] | SMILES | also measured
8 | 0.7 °C | 0.7 °C | 0.4 °C | -0.4 °C | -0.1 °C | 1 °C | 2.2 °C | 0.2 °C | 1.2 °C | 1.1 °C | 0.4 °C | 0.3 °C | 0.8 °C | 0.7 °C | 1.4 °C | 0.5 °C | -0.3 °C | 0.4 °C | 0.5 °C | 0.5 °C | Cc1cc2ncc(-c3ccccc3)nc2cc1C | ΔTm [21]: 0 °C
9 | 0.4 °C | -0.4 °C | -5.7 °C | -0.8 °C | -5 °C | -0.7 °C | 1.2 °C | 0.5 °C | 0 °C | -0.2 °C | 0.9 °C | 4.4 °C | 0.2 °C | 0.9 °C | 0 °C | 0.3 °C | 1.8 °C | -6.6 °C | 0.2 °C | 0.4 °C | CC(C)(C)c1cc(C=C2C(=O)C=CC2=O)cc(C(C)(C)C)c1O | ΔTm [21]: 0.1 °C
10 | 0.5 °C | -0.1 °C | 3.1 °C | 1.3 °C | 1.5 °C | 1.7 °C | 1.5 °C | 0.2 °C | 0.8 °C | 1.2 °C | 2.4 °C | -0.6 °C | 0.2 °C | 0.8 °C | 1.1 °C | -0.2 °C | 1.6 °C | 0.1 °C | 4.3 °C | 0.6 °C | O=c1c(-c2ccc(O)cc2)coc2cc(O)cc(O)c12 | ΔTm [21]: 1 °C
11 | 1.6 °C | 0.5 °C | 2.6 °C | -1 °C | 0.5 °C | 0.6 °C | 2.7 °C | 0.9 °C | 4.2 °C | 0 °C | 5.7 °C | -0.4 °C | 0.2 °C | 0.3 °C | 2.2 °C | 1 °C | 1.8 °C | 0.8 °C | 0.1 °C | 0.1 °C | Nc1cc2ncnc(Nc3cccc(Br)c3)c2cc1N | ΔTm [21]: 1.6 °C
12 | 0.9 °C | 0.4 °C | 1.5 °C | 0.5 °C | 0.8 °C | 0.5 °C | 0.4 °C | 0.8 °C | 0.4 °C | 0 °C | 1.8 °C | -0.5 °C | 0.4 °C | 1 °C | 1 °C | 0.6 °C | 0.1 °C | 0.4 °C | 0.1 °C | 0 °C | N#C/C(=C\c1ccc(O)c(O)c1)C(=O)Nc1ccccc1 | ΔTm [21]: 0.2 °C
